In ChEMBL document CHEMBL3632524, “3-(2,6-Dichloro-benzyloxy)-11-oxo-olean-12-ene-29-oic acid, a semisynthetic derivative of glycyrrhetic acid: synthesis, antiproliferative, apoptotic and anti-angiogenesis activity” (Medchemcomm, 2015):

How the values were obtained:
Assay type in all cases: functional, cell-based
PC-3 = experiment: Antiproliferative activity against human PC3 cells assessed as cell viability after 48 hrs by MTT assay; settings: PC-3, 48 h
[1] = Antiproliferative activity against human MIAPaCa2 cells assessed as cell viability after 48 hrs by MTT assay; settings: MIA PaCa-2, 48 h
HepG2 = experiment: Antiproliferative activity against human HepG2 cells assessed as cell viability after 48 hrs by MTT assay; settings: HepG2, 48 h
HL-60 = experiment: Cytotoxicity against human HL60 cells

| IC50 (PC-3) [µM] | IC50 (HepG2) [µM] | Compound | IC50 [1] [µM] | IC50 (HL-60) [µM] |
| --- | --- | --- | --- | --- |
| 9 | > 100 | CC1(C)[C@@H](OCc2ccc(F)cc2)CC[C@]2(C)[C@H]3C(=O)C=C4[C@@H]5C[C@@](C)(C(=O)O)CC[C@]5(C)CC[C@@]4(C)[C@]3(C)CC[C@@H]12 | 12 |  |
| 10 | > 100 | CC1(C)[C@@H](OCc2c(F)cccc2Cl)CC[C@]2(C)[C@H]3C(=O)C=C4[C@@H]5C[C@@](C)(C(=O)O)CC[C@]5(C)CC[C@@]4(C)[C@]3(C)CC[C@@H]12 | 11 |  |
| > 20 | > 20 | CC1(C)[C@@H](OCc2ccc(F)c(Br)c2)CC[C@]2(C)[C@H]3C(=O)C=C4[C@@H]5C[C@@](C)(C(=O)O)CC[C@]5(C)CC[C@@]4(C)[C@]3(C)CC[C@@H]12 | > 20 |  |
| > 20 | > 20 | COc1ccc(CO[C@H]2CC[C@]3(C)[C@H]4C(=O)C=C5[C@@H]6C[C@@](C)(C(=O)O)CC[C@]6(C)CC[C@@]5(C)[C@]4(C)CC[C@H]3C2(C)C)cc1Br | > 20 |  |

Continued, molecule first:

| Compound | IC50 (PC-3) [µM] | IC50 (HepG2) [µM] | IC50 [1] [µM] | IC50 (HL-60) [µM] |
| --- | --- | --- | --- | --- |
| CC1(C)[C@@H](O)CC[C@]2(C)[C@H]3C(=O)C=C4[C@@H]5C[C@@](C)(C(=O)O)CC[C@]5(C)CC[C@@]4(C)[C@]3(C)CC[C@@H]12 [ENOXOLONE] | > 20 | > 20 | > 20 | 63.2 |
| CC[C@@]1(O)C(=O)OCc2c1cc1n(c2=O)Cc2cc3ccccc3nc2-1 [CAMPTOTHECIN] |  | 0.2 | 0.19 |  |
| CC1(C)[C@@H](OCc2ccccc2I)CC[C@]2(C)[C@H]3C(=O)C=C4[C@@H]5C[C@@](C)(C(=O)O)CC[C@]5(C)CC[C@@]4(C)[C@]3(C)CC[C@@H]12 | > 20 | > 20 | > 20 |  |
| CC1(C)[C@@H](OCc2cccc([N+](=O)[O-])c2)CC[C@]2(C)[C@H]3C(=O)C=C4[C@@H]5C[C@@](C)(C(=O)O)CC[C@]5(C)CC[C@@]4(C)[C@]3(C)CC[C@@H]12 | > 20 | > 20 | > 20 |  |
| CC(C)=CCO[C@H]1CC[C@]2(C)[C@H]3C(=O)C=C4[C@@H]5C[C@@](C)(C(=O)O)CC[C@]5(C)CC[C@@]4(C)[C@]3(C)CC[C@H]2C1(C)C | > 20 | > 20 | > 20 |  |
| CC1(C)[C@@H](OCc2ccc(Cl)cc2)CC[C@]2(C)[C@H]3C(=O)C=C4[C@@H]5C[C@@](C)(C(=O)O)CC[C@]5(C)CC[C@@]4(C)[C@]3(C)CC[C@@H]12 | > 20 | > 20 | > 20 |  |
